The record followed here is ChEMBL document CHEMBL3085740, “Aziridines from alkenyl-β-D-galactopyranoside derivatives: Stereoselective synthesis and in vitro selective anticancer activity” (Eur J Med Chem, 2013).

Broadly, the IC50 is the concentration at which inhibition is half-maximal. High values mean weaker potency, low ones greater potency.

Bounds are passed on as bounds.

The subject of data set [1] is A549. The data set can be described thus: Cytotoxicity against human A549 cells after 48 hrs by MTT assay. In kind it is functional, cell-based. The settings on record: A549, 48 h. Background: Tetrazolium assays rely on reduction of a dye to a coloured formazan, in cell work by metabolically active cells.
Another data set relates to MRC5. The data set can be described thus: Cytotoxicity against human MRC5 cells after 48 hrs by MTT assay. The format is cell-based. The settings on record: MRC5, 48 h.
For the next data set, the system named is MCF10. The data set can be described thus: Cytotoxicity against human MCF10 cells after 48 hrs by MTT assay. The format is cell-based. To be noted: MCF10, 48 h.
The nature of data set [2]: Cytotoxicity against human VH10 cells at 1 mM after 48 hrs by MTT assay. In kind it is cell-based. The settings on record: vh10, 48 h, 1000 µM.
In data set [3] the test system is A549. Nature of the data set: Cytotoxicity against human A549 cells at 300 uM after 48 hrs by MTT assay. The format is functional.
The subject of data set [4] is UACC-62. The data set can be described thus: Cytotoxicity against human UACC62 cells assessed as cell viability at 1 mM after 48 hrs by MTT assay. The format is functional. To be noted: UACC-62, 48 h, read-out: Activity.
Data set [5] is described as follows: Cytotoxicity against human VH10 cells after 48 hrs by MTT assay. In kind it is cell-based. The settings on record: VH10, 48 h.
The test system of a further data set is MCF7. The data set can be described thus: Cytotoxicity against human MCF7 cells after 48 hrs by MTT assay. The format is functional, cell-based. The settings on record: MCF7, 48 h.
Data set [6] deals with UACC-62. Nature of the data set: Cytotoxicity against human UACC62 cells after 48 hrs by MTT assay. To be noted: UACC-62, 48 h. In kind it is functional, cell-based.
Data set [7] is described as follows: Cytotoxicity against human MRC5 cells assessed as cell survival at 10 to 320 uM after 48 hrs by MTT assay. To be noted: read-out: Survival. The format is cell-based.
Data set [8] in a line: Cytotoxicity against human MCF10 cells assessed as cell survival at 264 uM after 48 hrs by MTT assay. The format is cell-based. To be noted: read-out: Survival.

Consider `Cc1ccc(S(=O)(=O)N2C(CO[C@@H]3O[C@@H]4CO[C@H](c5ccccc5)O[C@@H]4[C@H](O)[C@H]3O)C2(C)C)cc1` (stereo partly drawn), for which the concentration for half-maximal inhibition (IC50) turned out to be 389 µM with A549 [1] and 567 µM in the data set on MRC5.

Take `CCCCCCCCCCCCNCC(C)(CO[C@@H]1O[C@@H]2CO[C@H](c3ccccc3)O[C@@H]2[C@H](OCc2ccccc2)[C@H]1OCc1ccccc1)NS(=O)(=O)c1ccc(C)cc1` (stereo partly drawn): the IC50 in the data set on A549 [1] came to 492 µM; in the data set on MRC5, 156 µM.

For the molecule `CCCC1(CO[C@@H]2O[C@@H]3CO[C@H](c4ccccc4)O[C@@H]3[C@H](OCc3ccccc3)[C@H]2OCc2ccccc2)CN1S(=O)(=O)c1ccc(C)cc1` (stereo partly drawn), the 50% inhibitory concentration (IC50) in the data set with A549 [1] was determined as 579 µM; with MRC5 it was 793 µM.

On to `Cc1ccc(S(=O)(=O)N2CC2(CO[C@@H]2O[C@@H]3CO[C@H](c4ccccc4)O[C@@H]3[C@H](OCc3ccccc3)[C@H]2OCc2ccccc2)c2ccccc2)cc1` (stereo partly drawn), for which the 50% inhibitory concentration (IC50) with A549 [1] came to 599 µM; in the data set on MRC5 it was 570 µM.

As for `Cc1ccc(S(=O)(=O)N2CC2(C)CO[C@@H]2O[C@@H]3CO[C@H](c4ccccc4)O[C@@H]3[C@H](OCc3ccccc3)[C@H]2OCc2ccccc2)cc1` (stereo partly drawn), the IC50 in the data set with MCF10 is 567 µM; in [5], greater than 1000 µM; with MCF7, 12 µM; in the data set with UACC-62 [6] it was 196 µM; with A549 [1], 153 µM; in the data set on MRC5, greater than 1000 µM. For the same molecule, the results for the Activity result (in data set [2]; with A549 [3]) were “Non-toxic” and 30%, respectively. In the data set with UACC-62 [4], the viability at 1000 µM was 10%. The viability at 48 h, up to 320 µM in [7] amounted to 90%. In addition, the viability at 48 h, 264 µM in [8] amounted to 80%.

Take `O=c1[nH]cc(F)c(=O)[nH]1` [FLUOROURACIL]: the IC50 in data set [5] was greater than 1000 µM; in the data set with UACC-62 [6], 264 µM.

Take `Cc1ccc(S(=O)(=O)N2CC2CO[C@@H]2O[C@@H]3CO[C@H](c4ccccc4)O[C@@H]3[C@H](OCc3ccccc3)[C@H]2OCc2ccccc2)cc1` (stereo partly drawn): the viability at 48 h, up to 320 µM in [7] stood at 90%. The figures for the 50% inhibitory concentration (IC50) in the data set on A549 [1] and in the data set with MRC5 were 73 µM and 183 µM, respectively.

As for `Cc1ccc(S(=O)(=O)N2C(C)C2CO[C@@H]2O[C@@H]3CO[C@H](c4ccccc4)O[C@@H]3[C@H](O)[C@H]2O)cc1` (stereo partly drawn), the results for the concentration for half-maximal inhibition (IC50) in the data set on A549 [1] and in the data set on MRC5 were 351 µM and 544 µM, respectively.

In the case of `CCCCCCCCCCCCCCC(CO[C@@H]1O[C@@H]2CO[C@H](c3ccccc3)O[C@@H]2[C@H](OCc2ccccc2)[C@H]1OCc1ccccc1)(CN1CCN(CCO)CC1)NS(=O)(=O)c1ccc(C)cc1` (stereo partly drawn), the values for the IC50 in the data set with A549 [1] and in the data set with MRC5 were 15 µM and 2 µM, respectively.

For the molecule `CCCCCCCCCCCCCCC1(CO[C@@H]2O[C@@H]3CO[C@H](c4ccccc4)O[C@@H]3[C@H](OCc3ccccc3)[C@H]2OCc2ccccc2)CN1S(=O)(=O)c1ccc(C)cc1` (stereo partly drawn), the IC50 in the data set on A549 [1] and with MRC5 was 1000 µM each time.

Regarding `Cc1ccc(S(=O)(=O)N2C(C)C2CO[C@@H]2O[C@@H]3CO[C@H](c4ccccc4)O[C@@H]3[C@H](OCc3ccccc3)[C@H]2OCc2ccccc2)cc1` (stereo partly drawn), the half-maximal inhibitory concentration (IC50) in the data set on A549 [1] was 804 µM; with MRC5 it was greater than 1000 µM.

Consider `CCCCCCCC1C(CO[C@@H]2O[C@@H]3CO[C@H](c4ccccc4)O[C@@H]3[C@H](OCc3ccccc3)[C@H]2O)N1S(=O)(=O)c1ccc(C)cc1` (stereo partly drawn), for which, in data set [7], the viability at 48 h, up to 320 µM came to 90%. For the same molecule, the results for the IC50 with A549 [1] and in the data set with MRC5 were 235 µM and greater than 1000 µM, respectively.

As for `Cc1ccc(S(=O)(=O)N2C(CO[C@@H]3O[C@@H]4CO[C@H](c5ccccc5)O[C@@H]4[C@H](OCc4ccccc4)[C@H]3OCc3ccccc3)C2(C)C)cc1` (stereo partly drawn), the IC50 with A549 [1] and in the data set with MRC5 was greater than 1000 µM throughout.

For the molecule `CCCCCCCCCC1(CO[C@@H]2O[C@@H]3CO[C@H](c4ccccc4)O[C@@H]3[C@H](OCc3ccccc3)[C@H]2OCc2ccccc2)CN1S(=O)(=O)c1ccc(C)cc1` (stereo partly drawn), the Activity with A549 [3] is reported as 30%. Also, in [7], the viability at 48 h, up to 320 µM came to 90%. Further, the IC50 with A549 [1] stood at 154 µM; with MRC5 it was 575 µM.

Consider `Cc1ccc(S(=O)(=O)N2CC2(C)CO[C@@H]2O[C@@H]3CO[C@H](c4ccccc4)O[C@@H]3[C@H](O)[C@H]2O)cc1` (stereo partly drawn), for which the 50% inhibitory concentration (IC50) with A549 [1] came to 154 µM; with MRC5 it was 312 µM.
